Read-outs that look alike come from different tables or passages of the source.
Key:
[1] = Stability of 225Ac complexes in human serum (competition, TLC); format: in vitro ADME; conditions: ambient temperature
Procedure: (§1) Varying TLC/iTLC plate systems were selected for different ligands based from results of positive and negative radiolabeling controls: • Method A, for [^225Ac(octapa)]^− and [^225Ac(CHXoctapa)]^−: iTLC-SG plates (Agilent, 2 cm × 10 cm, baseline at 1.5 cm), developed using 10 mM NaOH/9% NaCl solution. Under these conditions free ^225Ac^III remains at the baseline (Rf = 0), while the ^225Ac-ligand complex migrates upwards with the solvent (Rf > 0); or • Method B, for [^225Ac(bispa^2)]^+ and [^225Ac(macropa)]^+: aluminum-backed ultrapure silica gel 60 with 250 μm thickness TLC plates (Fisher, 2 cm × 10 cm, baseline at 1.5 cm), developed using 0.4 M sodium citrate (pH 4) with 10% methanol. Under these conditions free ^225Ac^III migrates with the solvent front (Rf = 1), while ^225Ac-ligand complex remains at the baseline (Rf = 0); (Comba et al. [2017]; Thiele et al. [2017]) or • Method C, for [^225Ac(DOTA)]^−: iTLC-SA plates (Agilent, 2 × 10 cm, baseline at 1.5 cm) and developed using 50 mM EDTA buffer, pH 4. Under these conditions free ^225Ac^III migrates with the solvent front (Rf = 1), while ^225Ac-ligand complex remains at the baseline (Rf = 0); or • Method D, for human serum stability (below): aluminum-backed ultrapure silica gel 60 with 250 um thickness TLC plates (Fisher, 2 cm × 10 cm, baseline at 1.5 cm), developed in 50 mM EDTA, pH 5. Under these conditions, chelate-bound ^225Ac remains at the baseline (Rf = 0), and any ^225Ac^III that has de-complexed from the chelate will travel with the solvent front (Rf = 1). Method D was validated by incubating “free” ^225Ac^III with human serum under analogous conditions to ensure all the activity eluted with the solvent front (Rf ~ 1).
To investigate the stabilities of the ^225Ac-complexes, a competition experiment was performed in the presence of excess human serum and the displacement of radioactivity from the chelator to serum proteins was tracked over the course of seven days. Endogenous metal-binding proteins in serum such as apo-transferrin and metallothionein can compete for and displace chelator-bound metal ions in vivo, preventing successful delivery of the radionuclide to the desired target. The ^225Ac-complexes were prepared using the radiolabeling protocols described above and added to an equal volume (170–180 μL) of human serum (stored at − 5 °C and thawed at ambient temperature). At varying time points (0.5 h to 7 days), small aliquots (1–5 μL) were spotted on iTLC plates using Methods B or D, described above. Representative TLC radio-chromatograms of a serum competition assay with ligand and control are presented in Additional file 1: Figures S2 and S3.

[2] = La(III) exchange competition assay, 50-fold excess La; format: physicochemical; conditions: 50-fold excess La^III, ambient temperature
Procedure: as §1
The stability of a radiometal-chelate complex is also often assessed by its ability to withstand transchelation in the presence of excess stable isotopes of the radiometal. Though this is an impossible experiment to perform with Ac since all Ac isotopes are unstable, lanthanum(III) has a similar ionic radius ([…], CN = 6–9) and charge to actinium(III) and is often considered a chemical surrogate to Ac^III. Using non-radioactive metal ions such as La^III as a competitor for ligand complexation is a straightforward method to probe the kinetic off-rate of a pre-formed Ac^III complex, since many ligands that bind Ac^III may also efficiently complex La^III. Herein, ^225Ac-complexes were prepared using the radiolabeling protocols described above and combined with La(NO3)3 (0.1 M, 50 M equivalents compared to the ligand) and allowed to react at ambient temperature. At varying time points (1 h – 7 d), aliquots of the competition reaction mixture (1–5 μL) were spotted on aluminum backed TLC plates and developed using the TLC methods described above.

[3] = human serum, n = 1, ref Thiele et al. [2017], cited from earlier work
[4] = 50-fold excess La^III, ref Thiele et al. [2017], cited from earlier work

## O=C([O-])CN(Cc1cccc(C(=O)[O-])n1)C1CCCCC1N(CC(=O)[O-])Cc1cccc(C(=O)[O-])n1.[225Ac+3] (centres unmarked) [[^225Ac(CHXoctapa)]^−]
[1]; 1 h
  % Stable: 95.9 ± 1.0%
[1]; 4 h
  % Stable: 96.8 ± 1.7%
[1]; 1 d
  % Stable: 97.0 ± 0.9%
[1]; 2 d
  % Stable: 96.7 ± 1.6%
[1]; 3 d
  % Stable: 96.1 ± 1.5%
[1]; 4 d
  % Stable: 96.7 ± 1.2%
[1]; 7 d
  % Stable: 95.6 ± 1.6%
[2]; 5 h
  % Stable: 81.8 ± 4.3%
[2]; 1 d
  % Stable: 45.7 ± 3.1%
[2]; 2 d
  % Stable: 26.5 ± 8.9%
[2]; 3 d
  % Stable: 18.1 ± 0.4%
[2]; 6 d
  % Stable: 5.0 ± 0.4%
[2]; 7 d
  % Stable: 3.9 ± 0.6%

## O=C([O-])CN1CCN(CC(=O)[O-])CCN(CC(=O)[O-])CCN(CC(=O)[O-])CC1.[225Ac+3] [[^225Ac(DOTA)]^−, reference compound]
[1]; 0.5 h
  % Stable: 92.4 ± 4.0%
[1]; 1 h
  % Stable: 93.9 ± 4.5%
[1]; 4 h
  % Stable: 94.4 ± 3.7%
[1]; 1 d
  % Stable: 90.9 ± 5.6%
[1]; 2 d
  % Stable: 91.8 ± 5.6%
[1]; 4 d
  % Stable: 91.1 ± 6.1%
[1]; 7 d
  % Stable: 84.7 ± 8.1%
[2]; 1 h
  % Stable: 95.2 ± 3.3%
[2]; 5 h
  % Stable: 94.5 ± 3.5%
[2]; 1 d
  % Stable: 94.9 ± 2.9%
[2]; 2 d
  % Stable: 86.2 ± 3.1%
[2]; 7 d
  % Stable: 77.1 ± 3.6%

## O=C([O-])c1cccc(CN2CCOCCOCCN(Cc3cccc(C(=O)[O-])n3)CCOCCOCC2)n1.[225Ac+3] [[^225Ac(macropa)]^+]
[3]; 0.5 h
  % Stable: 96%
[3]; 1 h
  % Stable: 95%
[3]; 4 h
  % Stable: 93%
[3]; 1 d
  % Stable: 90%
[3]; 2 d
  % Stable: 93%
[3]; 3 d
  % Stable: 90%
[3]; 7 d
  % Stable: 90%
[4]; 1 h
  % Stable: 95%
[4]; 1 d
  % Stable: 93%
[4]; 2 d
  % Stable: 92%
[4]; 3 d
  % Stable: 91%
[4]; 6 d
  % Stable: 93%
[4]; 7 d column (footnote: 8 d time point)
  % Stable: 91^b %
[4]; 7 d column (footnote: 8 d time point), listed as [^225Ac(macropa)]^−
  % Stable: 91%

## O=C([O-])CN(CCN(CC(=O)[O-])Cc1cccc(C(=O)[O-])n1)Cc1cccc(C(=O)[O-])n1.[225Ac+3] [[^225Ac(octapa)]^−]
[1]; 1 h
  % Stable: 97.9 ± 0.9%
[1]; 4 h
  % Stable: 96.9 ± 1.5%
[1]; 1 d
  % Stable: 94.9 ± 1.2%
[1]; 2 d
  % Stable: 96.1 ± 1.0%
[1]; 3 d
  % Stable: 94.9 ± 1.1%
[1]; 4 d
  % Stable: 95.9 ± 1.9%
[1]; 7 d
  % Stable: 92.9 ± 1.0%
[2]; 1 h
  % Stable: 78.9 ± 2.9%
[2]; 5 h
  % Stable: 42.7 ± 0.3%
[2]; 1 d
  % Stable: 4.7 ± 1.5%
[2]; 2 d
  % Stable: 6.1 ± 2.6%

## O=C([O-])c1cccc(CN(CCN(Cc2cccc(C(=O)[O-])n2)CP(=O)([O-])[O-])CP(=O)([O-])[O-])n1.[225Ac+3] [[^225Ac(phospa)]^3−]
[1]; 1 h
  % Stable: 81.6 ± 1.1%
[1]; 1 d
  % Stable: 81.5 ± 0.2%
[1]; 3 d
  % Stable: 80.2 ± 1.1%
[1]; 4 d
  % Stable: 76.2 ± 0.1%
[1]; 7 d
  % Stable: 77.1 ± 6.4%
[2]; 5 h
  % Stable: 0%
